Results as given in patent US20080075786A1, “Antimicrobial agents derived from cream” (Universite de Montreal, priority 2006, published 2008).
Like-named read-outs stand apart in the source and are kept apart here.

How the values were obtained:
[1] = test system: Candida albicans SC5314 strain; assay: Germination inhibition assay (antihyphal growth activity); assay type: cell-based; details: for activity at inhibiting C. albicans germination: individual commercial free fatty acids, highest concentration used 81 μM
Procedure: The Candida albicans SC5314 strain (Fonzi, W. A. and Irwin, M. Y. 1993. Isogenic strain construction and gene mapping in Candida albicans. Genetics 134: 717-728.) was used to investigate the antihyphal activity of whey cream lipids. This strain was routinely grown as yeast cells at 30° C. in YPD medium (1% yeast extract, 2% peptone, 2% dextrose). Germination was induced by incubating cells in dextrose-free Sabouraud (Difco; Joshi, K. R., Gavin, J. B., and Bremner, D. A. 1973. The formation of germ tubes by Candida albicans in various peptone media. Sabouraudia. 11: 259-262.) at 37° C. in 96-wells microtiter plates (Costar 3595). Briefly, cells from fresh YPD cultures were harvested and washed twice with sterile water. Washed cells were suspended in dextrose-free Sabouraud at a density of 5×10^3 cells/ml and then immediately distributed to microtiter wells containing an equal volume of dextrose-free Sabouraud supplemented with different concentrations of lipids. After 15 h incubation at 37° C. in an atmospheric incubator without agitation, cells were washed and fixed with a fresh 1% formaldehyde solution. The ability of lipids to inhibit germination was determined by microscopic observations.

[2] = test system: Candida albicans ZK3379 strain (CAI-4 HWP1-lacZ); assay: C. albicans HWP1-lacZ beta-galactosidase and XTT assays (kinetics of germination inhibition in hyphae inducing media); assay type: cell-based; details: for germ tube emergence and elongation: all inducing conditions tested (dextrose-free Sabouraud, Lee's, Spider, HFM7), 0-6 h (FIG. 2)
Procedure: Candida albicans ZK3379 strain (CAI-4 HWP1-lacZ; Hogan, D A, Vik A, Kolter R (2004). A Pseudomonas aeruginosa quorum-sensing molecule influences Candida albicans morphology. Mol Microbiol 54: 1212-1223.) was used for beta-galactosidase and XTT assays. Cells from this strain were grown in YPDA at 30° C. to a density of about 1×10^8 cells/ml (hemacytometer). These late exponentially growing cells were then washed twice with water and kept on ice until used. Germination was induced by incubating cells (final density of 5×10^5 cells/ ml) at 37° C. in 2.5 ml of either dextrose-free Sabouraud (Joshi et al., 1973), Lee's (Lee K L, Buckley H R, Campbell C C (1975). An amino acid liquid synthetic medium for the development of mycelial and yeast forms of Candida albicans. Sabouraudia 13: 148-153, Spider (Liu H, Kohler J, Fink Gr (1994). Suppression of hyphal formation in Candida albicans by mutation of a STE12 homolog. Science 266: 1723-1726 or Hypha-Forming Media (Biswas S K, Yokoyama K, Kamei K, Nishimur K, Miyaji M (2001) Inhibition of hyphal growth of Candida albicans by activated lansoprazole, a novel benzimidazole proton pump inhibitor Med Mycol 39: 283-285.), supplemented with FFAs. All lipids were dissolved in ethanol. Assays were performed in duplicate in 24-wells mictotiter plates (Costar 3526) without agitation. After appropriate incubation times (i.e. 0, 2, 4 or 6 h), microtiter plates were centrifuged for 5 min at 2000 rpm (Jouan inc. CR3i) and supernatents, discarded. XTT assays were done immediately and essentially as described (Honraet K, Goetghebeur E, Nelis H J (2005). Comparison of three assays for the quantification of Candida biomass in suspension and CDC reactor grown biofilms. J Microbiol Methods 63: 287-295). For beta-galactosidase assays, microtiter plates were frozen at −80° C. and processed later as described (Kippert F (1995). A rapid permeabilization procedure for accurate quantitative determination of beta-galactosidase activity in yeast cells. FEMS Microbiol Lett 128: 201-206; Hogan et al., 2004) but directly in microtiters plates. Absorbances were measured in 96-well microtiters plates using a microtiter plate reader (Microplate Reader MR600), equipped with filters of 410 nm (beta-galactosidase) and 490 nm (XTT), respectively.
As inhibition of germination of C. albicans by molecules could be the result of early and/or late blocking events, a more comprehensive analysis of the activity of free fatty acids was performed using multiple time points and other germ tube inducing media. Therefore, germination was monitored at 0, 2, 4 and 6 h in dextrose-free Sabouraud, Lee's, Spider and HFM7 (i.e. serum) media using the C. albicans HWP1-lacZ assay: beta-galactosidase measurements should reflect the morphological change from yeast cells to hyphal growth (Hogan et al., 2004). beta-galactosidase results were normalized using the XTT assay (Honraet et al., 2005) to correct for biomass increase. Microscopic observations of cells after 6 h incubation are also presented for each inducing conditions and correlated with beta-galactosidase data (FIG. 2).

[3] = test system: C. albicans SC5314 strain; assay: Antifungal assay against C. albicans (optical density at 630 nm); assay type: cell-based, Candida albicans; details: Candida albicans, SC5314, 40 h, dextrose-free Sabouraud, 37° C., commercial FFA
Procedure: (§1) Fractionation of Blackcurrant Seed Oil. Journal of the American Oil Chemists Society 65: 755-760). […] Under constant stirring, the mixture was heated to 75° C., or until it became clear, and then cooled slowly to 2° C. After completion of urea crystallization at 2° C. (15 h), the UFFA enriched methanol phase was separated from the urea crystals by centrifugation (5 min) at 1000×g. […] Yields were determined gravimetrically. […] UV detection was used to monitor effluent at 215 nm. Water (10 ml) was added to each of the 45 collected HPLC fractions, and they were then extracted three times with hexane (3×10 ml). […] Antifungal assay using commercial FFA were done in quadruplicates. The antifungal activity was evaluated in 96-well microtiter plates (Costar 3595) using Sabouraud as incubating medium for A. fumigatus and dextrose-free Sabouraud for C. albicans. Spores of A. fumigatus (Jeanine Joly, Université de Montréal) were germinated at 25° C. on slant agar Sabouraud media. They were harvested by washing vigorously slant cultures with 5 ml of 0.9% NaCl. Coarse debris were removed by filtrating the Aspergillus spores suspension through a sterile cotton plugs inserted into a Pasteur pipet. Monodisperse spores suspensions were obtained following brief sonications in a water bath sonicator (Branson 1210). […] Blastospores of the C. albicans SC5314 strain were prepared as for germination inhibition assays (see above). […] Wells were washed three times with Sabouraud before optical reading.

A. fumigatus = assay: Antifungal assay against A. fumigatus (optical density at 630 nm); assay type: cell-based
Procedure: as §1

in vitro = details: human
Procedure: Cytotoxicity was evaluated using Peripheral Blood Mononuclear cells (PBMC) of volunteers donors (Royal Victoria Hospital, Montreal). These cells were purified by the ficoll-Paque PLUS according to the manufacturer (Amersham-Bioscience). PBMC were used at a density of 100 000 cells/ml in RPMI 1640 (Sigma) supplemented with 10% heat-inactivated fetal bovine serum, 0.3 g/L of L-glutamine, 2 g/L sodium carbonate, 100 U/ml of penicillin and 100 μg/ml of streptomycin (Sigma). Assays were done in 96-well microtiter plates (Costar 3595) and the cytotoxicity was evaluated after 24 hours of incubation at 37° C. in a 5% CO2 atmospheric incubator using the LDH Cytotoxicity detection kit, according to the manufacturer (Roche Diagnostic). […] FFA were diluted in ethanol (96%) and no more than 1% ethanol (final concentration) was used in assays. Ethanol (1%) was used as negative control.
This method measures the release of lactate dehydrogenase (LDH) from the cytosol of damaged cells into the supernatant (Roche Diagnostic).

[4] = test system: C. albicans reporter strain ZK3379 (HWP1-lacZ); details: for Relative beta-galactosidase expression (filamentous growth): 18 h, 37° C., percentage of control cultures without fatty acids
Procedure: The effects of fatty acids gamma-linolenic acid and alpha-linolenic acid on filamentous growth of Candida albicans were determined in a filamentation assay. C. albicans reporter strain ZK3379 (HWP1-lacZ; Hogan et al., 2004) was propagated in yeast extract-peptone-dextrose (YPD) for 24 h at 30° C. Prior to the assay, cells were washed twice with phosphate-buffered saline (PBS 1×). Flasks (125 ml) containing 10 ml of prewarmed RPMI 1640/20 mM MOPS (pH 7.0) were inoculated with washed cells at a final concentration of 10^6 cells per ml. Working solutions of fatty acids (25 mM and 6.25 mM) were prepared freshly in ethanol 70%. Fatty acids were diluted in medium at final concentrations of 100 μM and 25 μM. An equal volume (40 μl) of ethanol 70% was added to control cultures. In all cultures, the final concentration of ethanol was 0.4% (v/v). Flasks were incubated at 37° C. for 18 h with shaking (ca. 200 RPM). Cells were collected by filtration (Millipore, 0.45 μm) and washed with PBS 1×. beta-galactosidase was assayed according to the method of Rose and Botstein (1983), where crude protein extracts are prepared and the activity is normalized to the amount of protein assayed. Relative amounts of beta-galactosidase activity were used as a measure of the amount of filamentous growth.

C. albicans yeast cells = details: 10 mM; cited from earlier work
mammalian cells = assay: Toxicity for mammalian cells in vitro; assay type: cell-based; details: thousand fold less concentrated solution than 10 mM; Bergsson et al., 2001; data not shown
[5] = Candida albicans, SC5314, 15 h, read-out: MIC, antihyphal growth activity of individual free fatty acids
[6] = Candida albicans, SC5314, read-out: MIC, antihyphal growth activity of individual free fatty acids
[7] = Candida albicans, SC5314, commercial free fatty acids, complete inhibition of germination, 15 h, 37° C., gravimetrical quantification, read-out: MIC, antihyphal growth activity of individual free fatty acids
[8] = Candida albicans, SC5314, same MIC in μg/ml (in brackets), commercial free fatty acids, gravimetrical quantification, read-out: MIC, antihyphal growth activity of individual free fatty acids
[9] = commercial free fatty acids, complete inhibition of germination, 15 h, 37° C., gravimetrical quantification, read-out: MIC, antihyphal growth activity of individual free fatty acids

Compound | MIC [1, 5] | MIC [1, 6] | activity at inhibiting C. albicans germination [1] | MIC [1, 7] | MIC [1, 8] | MIC [1, 9] | also measured
CCCCCCCCCCCCCC(=O)O [14:0, myristic acid, reference compound] | > 81 µM | > 18.5 µg/mL | inactive | – | – | – | –
CCCCCCCCCCCCCCCC(=O)O [16:0, palmitic acid, reference compound] | > 81 µM | > 20.8 µg/mL | inactive | – | – | – | –
CCCCCCCCCCCCCCCCCC(=O)O [18:0, stearic acid, reference compound] | > 81 µM | > 23 µg/mL | inactive | – | – | – | –
CCCCCC/C=C\CCCCCCCC(=O)O [16:1(n-7), palmitoleic acid] | – | – | – | 9 µM | 2.29 µg/mL | 9 µM | toxicity for C. albicans blastospores ([2]; Lee's medium, data not shown): toxic; appearance of germ tubes ([2]; Spider and HFM7 media): partially inhibited the appearance of germ tubes
CCCCC/C=C\C/C=C\C/C=C\CCCCC(=O)O [gamma-linolenic acid (C18:3n-6), gamma-linolenic acid] | – | – | – | – | – | – | IC50 [3]: 2.34 µM; IC50 (A. fumigatus; Aspergillus fumigatus; Sabouraud, 30° C., 40 h; commercial FFA): 13.4 µM; CC50 at 24 h (in vitro; Toxicity (TC50) PBMCs): 41 µM; Relative beta-galactosidase expression (filamentous growth) ([4]; 25 μM): 5.9 (±6.8) %; Relative beta-galactosidase expression (filamentous growth) ([4]; 100 μM): 0.5 (±0.7) %; germination of C. albicans ([4]; 100 μM, RPMI 1640/20 mM MOPS (pH 7.0), HWP1-LacZ strain): completely inhibited; antifungal activity in RPMI 1640/20 mM MOPS media ([4]; 100 μM, data not shown): not detected
CCCCCCCCCCCCCCCCC(=O)O [17:0, heptadecanoic acid, reference compound] | – | – | inactive | > 81 µM | > 21.9 µg/mL | – | –
conjugated linoleic acid [18:2(CLA 9c-11t)] | – | – | – | – | – | 9 µM | germ tube emergence and elongation [2]: produced germ tubes (2-4 h), but their further elongation was blocked; MIC, antihyphal growth activity of individual free fatty acids ([1]; same MIC in μg/ml (in brackets), commercial free fatty acids, gravimetrical quantification): 2.52 µg/mL
CCCCCCCC/C=C\CCCCCCCC(=O)O [18:1(n-9), oleic acid, reference compound] | > 81 µM | > 18.5 µg/mL | no or weak activity | – | – | – | activity against the germination of C. albicans ([2]; all inducing media but HFM7): weak or no activity
CCCCC/C=C\C/C=C\C/C=C\C/C=C\CCCC(=O)O [20:4(n-6), arachidonic acid] | – | – | – | 27 µM | 8.22 µg/mL | 27 µM | appearance of germ tubes ([2]; Spider and HFM7 media): partially inhibited the appearance of germ tubes; appearance of germ tubes ([2]; dextrose-free Sabouraud and Lee's inducing media): strongly inhibited the appearance of germ tubes
CCCCC/C=C\C/C=C\CCCCCCCC(=O)O [18:2(n-6), linoleic acid] | – | – | – | 81 µM | 22.7 µg/mL | 81 µM | germ tube emergence and elongation [2]: produced germ tubes (2-4 h), but their further elongation was blocked
CCCCCCCCCCCC(=O)O [12:0, lauric acid] | – | – | – | 9 µM | 1.8 µg/mL | 9 µM | killing C. albicans yeast cells (C. albicans yeast cells): highly active; toxicity for mammalian cells in vitro (mammalian cells): not toxic; germ tube emergence and elongation [2]: completely inhibited the emergence of germ tubes
CCCCCCCCCCCCCCC(=O)O [15:0, pentadecanoic acid, reference compound] | – | – | inactive | > 81 µM | > 19.6 µg/mL | – | –
CC(C)CCCCCCCCCC(=O)O [12-methyldodecanoic acid (C13:0 i)] | – | – | – | – | – | – | IC50 [3]: ~49 µM; IC50 (A. fumigatus; Aspergillus fumigatus, 40 h, Sabouraud, 30° C., commercial FFA): ~283 µM; CC50 at 24 h (in vitro): 70 µM
